{"source": "patent US5112515A", "about": "“Phenothrin shampoo” (Euroceltique, S.A., priority 1990, dated 1992)", "tested_on": "Bacteria, moulds and yeasts", "experiment": "Efficacy of Antimicrobial Preservatives in Pharmaceutical Products (British Pharmacopoeia 1988), overall outcome", "format": "cell-based", "settings": "specification of British Pharmacopoeia 1988", "source_text": "The test procedure conformed with the specifications described in the 1988 British Pharmacopoeia--\"Efficacy of Antimicrobial Preservatives in Pharmaceutical Products\".\nAliquots of microbial suspensions of Pseudomonas aeruoinosa NC18 8626, Stahylococcus aureus NCTC 10788, Candida albicans NCPF 3179, and Asperoillus niger IMI 149007 were introduced into separate containers of the composition of Example 1 to achieve a final concentration of approximately 1×10^6 cfu/ml. The same volume of inoculum was simultaneously introduced into separate equivalent quantities of 0.1% peptone water to be used as controls. The inoculated product was stored in the dark at 20°-25° C.\n1 ml aliquots of the inoculated product were removed at 0, 6, 24 and 48 hours, 7, 14 and 28 days. Each was added to 9 ml of 0.1% peptone water containing the following as preservative inactivating agents:\nA topical preparation is considered to be effectively preserved if the following criteria are met:\nBacteria--the number of organisms recovered per ml is reduced by a factor of not less than 10^3 within 48 hours of challenge and no organism is recovered from 1 ml at 7 days and thereafter;\nMoulds and Yeasts--the number of organisms recovered per ml is reduced by a factor of not less than 10^2 within 14 days of challenge and there is no increase thereafter."}
{"smiles": "O=[N+]([O-])C(Br)(CO)CO", "note": "[bronopol, 2-bromo-2-nitropropane-1,3,-diol]", "values": [{"measurement": "Antimicrobial protection / antimicrobial properties of the shampoo", "result": "good antimicrobial protection"}]}
